Assay results from patent publication US12528837B2, “Aryl substituted polymyxin derivatives” (priority 2018, dated 2026).
Values after ≈ are worked out from the molar mass of the structure shown. Read-outs that look alike come from different tables or passages of the source. *1 amine or outer side, *2 acyl side, *3 side chain or, on linkers, in order; H or OH if unused. Where a SMILES comes first, the peptide text is derived from it. Bridges are numbered along the chain shown (N, C = ends). [ ]: non-standard residue; d: D form. The star is where a group is joined. GABA(3S-Bn) = O=C(C[C@@H](CN[*:1])Cc1ccccc1)[*:2]; X20 = NC[C@H](CC(=O)*)c1cccc(-c2ccccc2)c1; X22 = CC(C)Cc1cccc([C@H](CN)CC(=O)*)c1; X3 = CC(C)c1cccc([C@@H](CN)CC(=O)*)c1; X9 = CC(C)c1cccc([C@H](CN)CC(=O)*)c1; X19 = NC[C@@H](CC(=O)*)c1cccc(Br)c1; X4 = NC[C@@H](CC(=O)*)c1ccc(Cl)cc1; X7 = NC[C@H](CC(=O)*)c1cccc(Cl)c1; Dab = NCC[C@H](N)C(=O)O; Abu = CC[C@H](N)C(=O)O; Dap = NC[C@H](N)C(=O)O

Tests used:
HK-2 cells = test: In vitro renal cell toxicity assay (HK-2); type: cell-based
Description: The in vitro renal cell toxicity assay was performed according to the following protocol. […] Cells were seeded at 7,500 cells per well in 96-well plates and allowed to adhere overnight. […] Water and DMSO levels were kept constant at 5% and 0.5% respectively. The test compounds were incubated with cells for 24 h at 37° C. 5% CO2 in a humidified atmosphere. […] Media only background values were subtracted before the data was analysed using GraphPad Prism. Individual values were normalised to the vehicle control wells for each compound. Compound concentration values were plotted as log values to enable a dose-response curve to be fitted. The bottom of the curve was constrained to zero and IC50 values were determined. IC50 values are expressed relative to that for PMB in the same experiment. Where multiple determinations have been made, median values are presented.

[1] = Kidney drug level after subcutaneous dose in mouse; type: in vivo
Description: Four hours after dosing the animals were euthanised and kidneys removed, trimmed of fat and connective tissue, weighed and immediately snap-frozen. After thawing at room temperature, pairs of kidneys from each animal were placed in 2 mL conical tubes containing pre-weighed ceria-stabilised zirconium oxide beads. […] After 10 min. centrifugation at 13,000 rpm and 6° C., 200 μl of the supernatants were transferred into glass inserts and analysed by LC-MS-MS.

E. coli CA58 = type: cell-based
Description: (§1) The inoculum was prepared by making a direct suspension of isolated colonies (selected from an 18-24 hour Mueller-Hinton agar plate) adjusted to the 0.5 McFarland standard. […] The assays were performed in duplicate. […] Several of the compounds were subjected to multiple tests, and where this is the case, the MIC presented is the median value obtained. The MIC values are quoted in μg/mL.

K. pneumoniae CA64 = type: cell-based
Description: as §1

P. aeruginosa CCUG 59347 = type: cell-based
Description: as §1

[2] = system: A. baumannii ATCC BAA-747; type: cell-based
Description: (§2) The inoculum was prepared by making a direct suspension of isolated colonies (selected from an 18-24 hour Mueller-Hinton agar plate) adjusted to the 0.5 McFarland standard. […] The assays were performed in duplicate. […] The MIC values are quoted in μg/mL.

A. baumannii NCTC 13424 = type: cell-based
Description: as §2

K. pneumoniae ATCC 13822 = type: cell-based
Description: as §2

P. aeruginosa ATCC 27853 = type: cell-based
Description: as §2

E. coli ATCC 25922 = type: cell-based
Description: as §2

[3] = IC50 relative to PMB in the same experiment, 24 h
[4] = mouse, in vivo, mice, 17.2 mg/kg free base sc, 4 h, read-out: 4 hr kidney level
[5] = cation-adjusted Mueller-Hinton Broth, 18-20 h, 35° C.

SMILES | MIC E. coli CA58 (E. coli CA58; CA58) [µg/mL] | MIC K. pneumoniae CA64 (K. pneumoniae CA64; CA64) [µg/mL] | MIC P. aeruginosa CCUG 59347 (P. aeruginosa CCUG 59347; CCUG 59347) [µg/mL] | MIC A. baumannii ATCC BAA-747 ([2]; ATCC BAA-747) [µg/mL] | MIC A. baumannii NCTC 13424 (A. baumannii NCTC 13424; NCTC 13424) [µg/mL] | MIC P. aeruginosa ATCC 27853 (P. aeruginosa ATCC 27853; ATCC 27853) [µg/mL] | MIC E. coli CA58 (E. coli CA58; [5]) [µg/mL] | MIC K. pneumoniae CA64 (K. pneumoniae CA64; [5]) [µg/mL] | MIC P. aeruginosa CCUG 59347 (P. aeruginosa CCUG 59347; [5]) [µg/mL] | MIC K. pneumoniae ATCC 13822 (K. pneumoniae ATCC 13822; [5]) [µg/mL] | HK-2 rel to PMB (HK-2 cells) | MIC E. coli ATCC 25922 (E. coli ATCC 25922; [5]) [µg/mL] | MIC P. aeruginosa ATCC 27853 (P. aeruginosa ATCC 27853; [5]) [µg/mL] | other results
CC(C)C[C@@H]1NC(=O)[C@@H](Cc2ccccc2)NC(=O)[C@H](CCN)NC(=O)[C@@H](NC(=O)[C@H](CN)NC(=O)[C@@H](NC(=O)C[C@@H](CN)Cc2ccccc2)[C@@H](C)O)CCNC(=O)[C@H]([C@@H](C)O)NC(=O)[C@H](CCN)NC(=O)[C@H](CCN)NC1=O [Example 10, (S)-4-amino-3- benzylbutanoyl-Thr- Dap-Cyclo[Dab-Dab- DPhe-Leu-Dab-Dab- Thr]. Isomer 2] ({GABA(3S-Bn)}-T[Dap][Dab][Dab][dF]L[Dab][Dab]T; lactam 3-C) | – | – | – | – | – | – | 8 (≈ 7.12 µM) | 16 (≈ 14.2 µM) | 0.25 (≈ 0.222 µM) | 0.5 (≈ 0.445 µM) | – | – | – | HK-2 rel to PMB (HK-2 cells; [3]): 8; Drug level in kidney ([1]; mouse, 17.2 mg/kg sc, 4 hours): 346 µg/g; tissue level at time at 4 h [1, 4]: 346000 ng/g; 4 hr kidney level/rel. cytotoxicity ([1]; ratio of 4 h kidney level to HK-2 IC50 relative to PMB): 43; MIC A. baumannii ATCC BAA-747 [2, 5]: 0.25 µg/mL (≈ 0.222 µM); MIC A. baumannii NCTC 13424 (A. baumannii NCTC 13424; [5]): 0.25 µg/mL (≈ 0.222 µM)
CC(C)C[C@@H]1NC(=O)[C@@H](Cc2ccccc2)NC(=O)[C@H](CCN)NC(=O)[C@@H](NC(=O)[C@H](CN)NC(=O)[C@@H](NC(=O)C[C@@H](CN)c2cccc(Cl)c2)[C@@H](C)O)CCNC(=O)[C@H]([C@@H](C)O)NC(=O)[C@H](CCN)NC(=O)[C@H](CCN)NC1=O [Example 6, (R)-4-amino-3-(3- chlorophenyl) butanoyl- Thr-Dap-Cyclo[Dab- Dab-DPhe-Leu-Dab- Dab-Thr]] (X7-T[Dap][Dab][Dab][dF]L[Dab][Dab]T; lactam 3-C) | 8 (≈ 6.99 µM) | 8 (≈ 6.99 µM) | 0.5 (≈ 0.437 µM) | 0.5 (≈ 0.437 µM) | 0.5 (≈ 0.437 µM) | – | – | – | – | – | 7.8 | – | – | 4 hr kidney level/rel. cytotoxicity ([1]; mouse, in vivo): 49
CC[C@@H]1NC(=O)[C@@H](CC(C)C)NC(=O)[C@H](CCN)NC(=O)[C@@H](NC(=O)[C@H](CN)NC(=O)[C@@H](NC(=O)C[C@@H](CN)c2cccc(-c3ccccc3)c2)[C@@H](C)O)CCNC(=O)[C@H]([C@@H](C)O)NC(=O)[C@H](CCN)NC(=O)[C@H](CCN)NC1=O [Example 25] (X20-T[Dap][Dab][Dab][dL][Abu][Dab][Dab]T; lactam 3-C) | – | – | – | – | – | – | 16 (≈ 14.2 µM) | 2 (≈ 1.78 µM) | 0.5 (≈ 0.445 µM) | 0.5 (≈ 0.445 µM) | – | 0.25 (≈ 0.222 µM) | 0.25 (≈ 0.222 µM) | –
CC[C@@H]1NC(=O)[C@@H](CC(C)C)NC(=O)[C@H](CCN)NC(=O)[C@@H](NC(=O)[C@H](CN)NC(=O)[C@@H](NC(=O)C[C@H](CN)c2cccc(Br)c2)[C@@H](C)O)CCNC(=O)[C@H]([C@@H](C)O)NC(=O)[C@H](CCN)NC(=O)[C@H](CCN)NC1=O [Example 32, (S)-4-amino-3-(3- bromophenyl)butanoyl- Thr-Dap-Cyclo[Dab- Dab-DLeu-Abu-Dab- Dab-Thr]] (X19-T[Dap][Dab][Dab][dL][Abu][Dab][Dab]T; lactam 3-C) | – | – | – | – | – | – | 32 (≈ 28.4 µM) | 32 (≈ 28.4 µM) | 0.5 (≈ 0.444 µM) | 0.5 (≈ 0.444 µM) | – | 0.25 (≈ 0.222 µM) | 0.5 (≈ 0.444 µM) | –
CC[C@@H]1NC(=O)[C@@H](Cc2ccccc2)NC(=O)[C@H](CCN)NC(=O)[C@@H](NC(=O)[C@H](CN)NC(=O)[C@@H](NC(=O)C[C@@H](CN)c2cccc(C(C)C)c2)[C@@H](C)O)CCNC(=O)[C@H]([C@@H](C)O)NC(=O)[C@H](CCN)NC(=O)[C@H](CCN)NC1=O [Example 18] (X9-T[Dap][Dab][Dab][dF][Abu][Dab][Dab]T; lactam 3-C) | – | – | – | – | – | – | 16 (≈ 14.2 µM) | 8 (≈ 7.12 µM) | 0.25 (≈ 0.222 µM) | 0.25 (≈ 0.222 µM) | – | 0.25 (≈ 0.222 µM) | 0.25 (≈ 0.222 µM) | HK-2 rel to PMB (HK-2 cells; [3]): 32.8; tissue level at time at 4 h [1, 4]: 535000 ng/g

Second part, led by results:

MIC E. coli CA58 (E. coli CA58; CA58) [µg/mL] | MIC K. pneumoniae CA64 (K. pneumoniae CA64; CA64) [µg/mL] | MIC P. aeruginosa CCUG 59347 (P. aeruginosa CCUG 59347; CCUG 59347) [µg/mL] | MIC A. baumannii ATCC BAA-747 ([2]; ATCC BAA-747) [µg/mL] | MIC A. baumannii NCTC 13424 (A. baumannii NCTC 13424; NCTC 13424) [µg/mL] | MIC P. aeruginosa ATCC 27853 (P. aeruginosa ATCC 27853; ATCC 27853) [µg/mL] | SMILES | MIC E. coli CA58 (E. coli CA58; [5]) [µg/mL] | MIC K. pneumoniae CA64 (K. pneumoniae CA64; [5]) [µg/mL] | MIC P. aeruginosa CCUG 59347 (P. aeruginosa CCUG 59347; [5]) [µg/mL] | MIC K. pneumoniae ATCC 13822 (K. pneumoniae ATCC 13822; [5]) [µg/mL] | HK-2 rel to PMB (HK-2 cells) | MIC E. coli ATCC 25922 (E. coli ATCC 25922; [5]) [µg/mL] | MIC P. aeruginosa ATCC 27853 (P. aeruginosa ATCC 27853; [5]) [µg/mL] | other results
4 (≈ 3.58 µM) | 16 (≈ 14.3 µM) | 0.5 (≈ 0.447 µM) | 0.06 (≈ 0.0536 µM) | 0.06 (≈ 0.0536 µM) | 0.25 (≈ 0.224 µM) | CC(C)C[C@@H]1NC(=O)[C@@H](CC(C)C)NC(=O)[C@H](CCN)NC(=O)[C@@H](NC(=O)[C@H](CN)NC(=O)[C@@H](NC(=O)C[C@H](CN)c2cccc(C(C)C)c2)[C@@H](C)O)CCNC(=O)[C@H]([C@@H](C)O)NC(=O)[C@H](CCN)NC(=O)[C@H](CCN)NC1=O [Example 15, (S)-4-amino-3-(3- isopropylphenyl) butanoyl-Thr-Dap- Cyclo[Dab-Dab-DLeu- Leu-Dab-Dab-Thr]] (X3-T[Dap][Dab][Dab][dL]L[Dab][Dab]T; lactam 3-C) | – | – | – | – | 52.1 | – | – | tissue level at time at 4 h ([1]; mouse, in vivo, sc, 17.2 mg/kg): 443000 ng/g
4 (≈ 3.49 µM) | 8 (≈ 6.99 µM) | 0.25 (≈ 0.218 µM) | 0.06 (≈ 0.0524 µM) | 0.06 (≈ 0.0524 µM) | 0.06 (≈ 0.0524 µM) | CC(C)C[C@@H]1NC(=O)[C@@H](Cc2ccccc2)NC(=O)[C@H](CCN)NC(=O)[C@@H](NC(=O)[C@H](CN)NC(=O)[C@@H](NC(=O)C[C@H](CN)c2ccc(Cl)cc2)[C@@H](C)O)CCNC(=O)[C@H]([C@@H](C)O)NC(=O)[C@H](CCN)NC(=O)[C@H](CCN)NC1=O [Example 1, (S)-4-amino-3-(4- chlorophenyl) butanoyl- Thr- Dap-Cyclo[Dab- Dab-DPhe-Leu-Dab- Dab-Thr]] (X4-T[Dap][Dab][Dab][dF]L[Dab][Dab]T; lactam 3-C) | – | – | – | – | 8.8 | – | – | 4 hr kidney level/rel. cytotoxicity ([1]; mouse, in vivo): 30; Drug Level in Kidney (μg/g kidney, 4 h) ([1]; mouse, in vivo, sc, 17.2 mg/kg): 268 μg/g kidney; tissue level at time at 4 h ([1]; mouse, in vivo, sc, 17.2 mg/kg): 267000 ng/g
16 (≈ 14.5 µM) | 2 (≈ 1.81 µM) | 0.5 (≈ 0.453 µM) | – | – | 0.5 (≈ 0.453 µM) | CC[C@@H]1NC(=O)[C@@H](CC(C)C)NC(=O)[C@H](CCN)NC(=O)[C@@H](NC(=O)[C@H](CN)NC(=O)[C@@H](NC(=O)C[C@@H](CN)c2cccc(CC(C)C)c2)[C@@H](C)O)CCNC(=O)[C@H]([C@@H](C)O)NC(=O)[C@H](CCN)NC(=O)[C@H](CCN)NC1=O [Example 27, (R)-4-amino-3-(3- isobutylphenyl)butanoyl- Thr- Dap- Cyclo[Dab-Dab-DLeu- Abu-Dab-Dab-Thr]] (X22-T[Dap][Dab][Dab][dL][Abu][Dab][Dab]T; lactam 3-C) | – | – | – | – | – | – | – | MIC E. coli ATCC 25922 (E. coli ATCC 25922; ATCC 25922): 0.25 µg/mL (≈ 0.226 µM); MIC K. pneumoniae ATCC 13822 (K. pneumoniae ATCC 13822; ATCC 13822): 0.25 µg/mL (≈ 0.226 µM)
